Reference: patent US20260297060A1, “COMPOUNDS FOR THE DEGRADATION OF MUTANT BRAF” (C4 THERAPEUTICS, INC., priority 2023, published 2026)
Where two headings read alike, the source gives them in different places.

How the values were obtained:
A375-NRAS^Q61K cells = test: CTGlo Cell Viability Assay, A375-NRAS^Q61K (A375.11) cells, 96 hours; format: cell-based, human; settings: A375.11 (A375-NRAS^Q61K) cells; for Emax / CTGlo A375.11 96 hours Emax: lowest % viability achieved
Outline: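 Viability as CellTiter-Glo ATP luminescence after 96 h compound exposure at 37 °C; A375.11 (BRAF V600E/NRAS Q61K) cells at 250/well, top final concentration 10 μM in half-log steps. Signal was background-corrected and set relative to DMSO controls. A 4-parameter logistic fit gave GI50 (50% crossing) and Emax.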

BRAF V600E = molecular target: T1, BRAF V600E (Homo sapiens, UniProt P15056+Q96SW2, V600E); test: BRAF V600E HiBiT Degradation Assay; format: cell-based; settings: A375.10 cells, BRAF V600E; for Emax / HiBiT-Degradation A375.10 BRAF 2 hours Emax: residual protein remaining; for Emax: read-out: HiBiT-Degradation A375.10 BRAF 2 hours Emax
T1 construct: knock-in of the HiBiT tag to the endogenous BRAF V600E locus; host or cells: A375.10 (A375 clonal line, CRISPR HiBiT knock-in at the endogenous BRAF V600E locus)
Outline: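 Endogenous HiBiT knock-in on BRAF V600E in A375 cells (clone A375.10); 11-point half-log series, top 10 μM, 2, 6 or 24 h at 37° C. Lytic HiBiT luminescence, background-subtracted, normalized to DMSO; 4-parameter fit gives DC50, Emax (residual protein) and IP (inflection point).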

[1] = 2 hours, read-out: HiBiT-Degradation A375.10 BRAF 2 hours DC50
[2] = 2 hours, inflection point, read-out: HiBiT-Degradation A375.10 BRAF 2 hours IP

T1 sequence (P15056 whole entry V600E): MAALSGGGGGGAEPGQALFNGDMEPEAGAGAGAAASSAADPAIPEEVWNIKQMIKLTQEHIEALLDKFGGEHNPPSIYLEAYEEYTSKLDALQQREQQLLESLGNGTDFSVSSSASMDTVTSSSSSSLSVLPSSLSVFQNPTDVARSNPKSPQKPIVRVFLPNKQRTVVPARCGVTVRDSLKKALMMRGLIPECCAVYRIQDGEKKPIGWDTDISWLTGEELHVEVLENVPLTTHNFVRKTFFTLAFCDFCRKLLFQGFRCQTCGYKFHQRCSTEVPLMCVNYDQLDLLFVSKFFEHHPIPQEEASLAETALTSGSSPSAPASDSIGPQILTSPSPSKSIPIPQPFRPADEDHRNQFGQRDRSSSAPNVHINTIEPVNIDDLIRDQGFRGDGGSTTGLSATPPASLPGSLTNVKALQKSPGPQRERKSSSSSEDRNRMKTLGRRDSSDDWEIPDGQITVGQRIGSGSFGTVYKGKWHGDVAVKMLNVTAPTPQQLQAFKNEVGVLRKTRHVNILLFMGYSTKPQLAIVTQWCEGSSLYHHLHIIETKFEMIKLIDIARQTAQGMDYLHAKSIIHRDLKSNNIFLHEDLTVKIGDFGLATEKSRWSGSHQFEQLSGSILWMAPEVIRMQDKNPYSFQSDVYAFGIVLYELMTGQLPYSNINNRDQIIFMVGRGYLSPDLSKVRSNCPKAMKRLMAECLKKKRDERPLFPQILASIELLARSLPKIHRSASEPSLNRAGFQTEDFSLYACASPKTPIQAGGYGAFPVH
T1 sequence (Q96SW2 whole entry): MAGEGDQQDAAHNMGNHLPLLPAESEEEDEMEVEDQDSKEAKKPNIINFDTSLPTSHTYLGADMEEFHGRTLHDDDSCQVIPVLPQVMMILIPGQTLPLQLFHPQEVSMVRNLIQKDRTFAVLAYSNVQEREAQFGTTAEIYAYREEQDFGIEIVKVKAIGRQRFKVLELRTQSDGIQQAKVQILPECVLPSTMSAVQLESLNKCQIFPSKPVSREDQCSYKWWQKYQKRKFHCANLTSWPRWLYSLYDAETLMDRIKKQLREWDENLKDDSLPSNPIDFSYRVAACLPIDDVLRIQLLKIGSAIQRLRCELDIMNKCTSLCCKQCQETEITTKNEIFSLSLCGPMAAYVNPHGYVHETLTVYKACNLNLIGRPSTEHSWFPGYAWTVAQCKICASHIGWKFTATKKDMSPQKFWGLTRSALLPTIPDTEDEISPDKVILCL
T1 sequence (Q16531 whole entry partner): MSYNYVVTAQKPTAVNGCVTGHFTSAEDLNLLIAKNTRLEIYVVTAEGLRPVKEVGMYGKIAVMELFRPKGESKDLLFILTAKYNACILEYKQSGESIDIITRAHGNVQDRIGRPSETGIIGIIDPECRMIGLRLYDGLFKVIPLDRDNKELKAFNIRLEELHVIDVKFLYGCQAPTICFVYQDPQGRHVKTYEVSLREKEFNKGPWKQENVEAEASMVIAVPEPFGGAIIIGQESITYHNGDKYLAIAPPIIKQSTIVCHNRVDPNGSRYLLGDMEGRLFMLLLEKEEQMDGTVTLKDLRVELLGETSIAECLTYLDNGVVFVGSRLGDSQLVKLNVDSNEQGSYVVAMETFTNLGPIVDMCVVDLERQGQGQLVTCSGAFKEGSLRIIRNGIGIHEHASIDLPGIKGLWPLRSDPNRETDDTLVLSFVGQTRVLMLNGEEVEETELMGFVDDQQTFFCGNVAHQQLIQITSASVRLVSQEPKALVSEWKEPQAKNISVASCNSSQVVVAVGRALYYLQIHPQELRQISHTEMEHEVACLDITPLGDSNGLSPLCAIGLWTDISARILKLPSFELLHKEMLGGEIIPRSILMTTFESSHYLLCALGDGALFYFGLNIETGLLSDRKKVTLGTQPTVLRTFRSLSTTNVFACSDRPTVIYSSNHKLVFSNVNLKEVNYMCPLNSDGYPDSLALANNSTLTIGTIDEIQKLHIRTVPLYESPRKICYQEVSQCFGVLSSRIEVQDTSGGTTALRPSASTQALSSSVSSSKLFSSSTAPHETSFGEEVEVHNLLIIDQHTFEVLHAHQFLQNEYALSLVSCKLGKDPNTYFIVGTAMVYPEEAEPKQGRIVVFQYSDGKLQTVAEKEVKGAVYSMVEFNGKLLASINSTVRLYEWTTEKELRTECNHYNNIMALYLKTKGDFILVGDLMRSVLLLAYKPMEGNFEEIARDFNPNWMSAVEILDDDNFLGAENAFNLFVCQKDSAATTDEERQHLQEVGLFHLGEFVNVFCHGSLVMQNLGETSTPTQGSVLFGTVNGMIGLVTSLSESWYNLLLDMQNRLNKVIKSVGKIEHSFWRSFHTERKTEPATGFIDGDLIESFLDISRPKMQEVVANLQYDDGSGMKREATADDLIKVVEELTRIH

| Compound | GI50 (A375-NRAS^Q61K cells) [nM] | DC50 (BRAF V600E; [1]) [nM] | GI50 (A375-NRAS^Q61K cells; Homo sapiens, 96 h) [nM] | Emax (A375-NRAS^Q61K cells; Homo sapiens, 96 h) [%] | DC50 (BRAF V600E; [2]) [nM] | Emax (BRAF V600E; 2 hours) [%] | CTGlo A375.11 96 hours Emax (A375-NRAS^Q61K cells) | HiBiT-Degradation A375.10 BRAF 2 hours Emax (BRAF V600E; 2 hours) | HiBiT-Degradation A375.10 BRAF 24 hours Emax (BRAF V600E; HiBiT, 24 hours) | DC50 (BRAF V600E; HiBiT, 24 hours, read-out: HiBiT-Degradation A375.10 BRAF 24 hours DC50) [nM] | DC50 (BRAF V600E; HiBiT, 24 hours, read-out: HiBiT-Degradation A375.10 BRAF 24 hours IP) [nM] |
| --- | --- | --- | --- | --- | --- | --- | --- | --- | --- | --- | --- |
| CCN(C)S(=O)(=O)Nc1ccc(F)c(Oc2ccc3ncn(C4CC5(CCN(C6CC7(C6)CN(c6cc8c(cc6F)c(N6CCC(=O)NC6=O)nn8C)C7)C5)C4)c(=O)c3c2)c1C#N (single isomer, unassigned) [Compound 302, 6-[2-cyano-3-[[ethyl(methyl)sulfamoyl]amino]-6-fluoro-phenoxy]-3-[6-[2-[3-(2,4-dioxohexahydropyrimidin-1-yl)-5-fluoro-1-methyl-indazol-6-yl]-2-azaspiro[3.3]heptan-6-yl]-6-azaspiro[3.4]octan-2-yl]-4-oxo-quinazoline] | < 1000 | < 1000 |  |  |  |  |  |  |  |  |  |
| Cn1nc(N2CCC(=O)NC2=O)c2cc(F)c(N3CC4(CC(N5CCC6(CC5)C[C@@H](n5cnc7ccc(Oc8c(F)ccc(NS(=O)(=O)C9CCOCC9)c8C#N)cc7c5=O)CO6)C4)C3)cc21 [Compound 252, N-[2-cyano-3-[3-[(3R)-8-[2-[3-(2,4-dioxohexahydropyrimidin-1-yl)-5-fluoro-1-methyl-indazol-6-yl]-2-azaspiro[3.3]heptan-6-yl]-1-oxa-8-azaspiro[4.5]decan-3-yl]-4-oxo-quinazolin-6-yl]oxy-4-fluoro-phenyl]tetrahydropyran-4-sulfonamide] |  | > 10000 | > 10000 | 50 to 90 | < 1000 | 50 to 90 |  |  |  |  |  |
| CCN(C)S(=O)(=O)Nc1ccc(F)c(Oc2ccc3ncc(OC4CC5(C4)CN(C4CCC(c6cc7c(cc6F)c(N6CCC(=O)NC6=O)nn7C)CC4)C5)nc3c2)c1C#N (single isomer, unassigned) [Compound 282, 7-[2-cyano-3-[[ethyl(methyl)sulfamoyl]amino]-6-fluoro-phenoxy]-2-[[2-[4-[3-(2,4-dioxohexahydropyrimidin-1-yl)-5-fluoro-1-methyl-indazol-6-yl]cyclohexyl]-2-azaspiro[3.3]heptan-6-yl]oxy]quinoxaline] | < 1000 | < 1000 |  |  | < 1000 |  | *** (<=50%) | ** (<90% and >50%) |  |  |  |
| CCN(C)S(=O)(=O)Nc1ccc(F)c(Oc2ccc3ncn(CC4(F)CCN(C5CCC(c6cc7c(cc6F)c(N6CCC(=O)NC6=O)nn7C)CC5)CC4)c(=O)c3c2)c1C#N (single isomer, unassigned) [Compound 201, 6-[2-cyano-3-[[ethyl(methyl)sulfamoyl]amino]-6-fluoro-phenoxy]-3-[[1-[4-[3-(2,4-dioxohexahydropyrimidin-1-yl)-5-fluoro-1-methyl-indazol-6-yl]cyclohexyl]-4-fluoro-4-piperidyl]methyl]-4-oxo-quinazoline] |  | < 1000 | 1000 to 10000 | 50 to 90 | < 1000 | < 50 |  |  |  |  |  |
| CCN(C)S(=O)(=O)Nc1ccc(F)c(Oc2ccc3ncn(C4CC5(C4)CN(C4CCC(c6cc7c(cc6F)c(N6CCC(=O)NC6=O)nn7C)CC4F)C5)c(=O)c3c2)c1C#N (single isomer, unassigned) [Compound 300] | < 1000 | < 1000 |  |  | < 1000 |  | ** (<90% and >50%) | *** (<=50%) | *** (<=50%) | < 1000 | < 1000 |
| CCN(C)S(=O)(=O)Nc1ccc(F)c(Oc2ccc3ncc(OC4CC5(C4)CN(C4CCC(c6cc7c(cc6F)c(N6CCC(=O)NC6=O)nn7C)CC4)C5)nc3c2)c1C#N (single isomer, unassigned) [Compound 281, 7-[2-cyano-3-[[ethyl(methyl)sulfamoyl]amino]-6-fluoro-phenoxy]-2-[[2-[4-[3-(2,4-dioxohexahydropyrimidin-1-yl)-5-fluoro-1-methyl-indazol-6-yl]cyclohexyl]-2-azaspiro[3.3]heptan-6-yl]oxy]quinoxaline] |  | > 10000 | < 1000 | < 50 | < 1000 | 50 to 90 |  |  |  |  |  |
